{"source": "PubChem BioAssay (NCI)", "assay_in_all_cases": "NCI tumour cell line growth inhibition, 48 h", "key": {"MDA-MB-435": {"system": "MDA-MB-435"}, "KM12 colon": {"system": "KM12 colon"}, "LOX IMVI melanoma": {"system": "LOX IMVI melanoma"}, "NCI-H460 lung": {"system": "NCI-H460 lung"}, "HOP-92 NSCLC": {"system": "HOP-92 NSCLC"}, "OVCAR-3 ovarian": {"system": "OVCAR-3 ovarian"}, "CCRF-CEM leukemia": {"system": "CCRF-CEM leukemia"}, "ACHN renal": {"system": "ACHN renal"}, "RPMI-8226 leukemia": {"system": "RPMI-8226 leukemia"}, "TK-10 renal": {"system": "TK-10 renal"}, "HCT-116 colon": {"system": "HCT-116 colon"}, "HOP-18 NSCLC": {"system": "HOP-18 NSCLC"}, "SK-OV-3 ovarian": {"system": "SK-OV-3 ovarian"}, "SF-268 CNS": {"system": "SF-268 CNS"}, "A549 NSCLC": {"system": "A549 NSCLC"}, "SR leukemia": {"system": "SR leukemia"}, "M19-MEL melanoma": {"system": "M19-MEL melanoma"}, "OVCAR-4 ovarian": {"system": "OVCAR-4 ovarian"}, "RXF 393 renal": {"system": "RXF 393 renal"}, "HS 578T breast": {"system": "HS 578T breast"}, "786-0 renal": {"system": "786-0 renal"}, "SF-539 CNS": {"system": "SF-539 CNS"}, "MCF7 breast": {"system": "MCF7 breast"}, "SN12C renal": {"system": "SN12C renal"}, "SNB-19 CNS": {"system": "SNB-19 CNS"}, "MALME-3M melanoma": {"system": "MALME-3M melanoma"}, "SW-620 colon": {"system": "SW-620 colon"}, "A498 renal": {"system": "A498 renal"}, "T-47D breast": {"system": "T-47D breast"}, "HCT-15 colon": {"system": "HCT-15 colon"}, "LXFL 529 NSCLC": {"system": "LXFL 529 NSCLC"}, "SNB-78 CNS": {"system": "SNB-78 CNS"}, "NCI-H226 lung": {"system": "NCI-H226 lung"}, "SK-MEL-2 melanoma": {"system": "SK-MEL-2 melanoma"}, "MOLT-4 leukemia": {"system": "MOLT-4 leukemia"}, "HL-60(TB) leukemia": {"system": "HL-60(TB) leukemia"}, "MDA-N": {"system": "MDA-N"}, "NCI-H522 lung": {"system": "NCI-H522 lung"}, "UO-31 renal": {"system": "UO-31 renal"}, "BT-549 breast": {"system": "BT-549 breast"}, "SN12K1 renal": {"system": "SN12K1 renal"}, "M14 melanoma": {"system": "M14 melanoma"}, "SK-MEL-28 melanoma": {"system": "SK-MEL-28 melanoma"}, "DLD-1 colon": {"system": "DLD-1 colon"}, "HOP-62 NSCLC": {"system": "HOP-62 NSCLC"}, "NCI-H23 lung": {"system": "NCI-H23 lung"}, "EKVX NSCLC": {"system": "EKVX NSCLC"}, "PC-3 prostate": {"system": "PC-3 prostate"}, "P388 leukemia": {"system": "P388 leukemia"}, "NCI/ADR-RES ovarian": {"system": "NCI/ADR-RES ovarian"}, "CAKI-1 renal": {"system": "CAKI-1 renal"}, "HCC-2998 colon": {"system": "HCC-2998 colon"}, "COLO 205 colon": {"system": "COLO 205 colon"}, "DU-145 prostate": {"system": "DU-145 prostate"}, "SK-MEL-5 melanoma": {"system": "SK-MEL-5 melanoma"}, "DMS 273 small cell lung": {"system": "DMS 273 small cell lung"}, "P388/ADR leukemia": {"system": "P388/ADR leukemia"}, "MDA-MB-231 breast": {"system": "MDA-MB-231 breast"}, "K-562 leukemia": {"system": "K-562 leukemia"}}, "note": "“And” between values parts separate entries of the source, which are not always exact repeats. Equal values may be shown once.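 Cultured in 96-well plates, cells were exposed to test compound for 48 hours across five concentrations. GI50: concentration for 50% inhibition of growth. TGI: total growth inhibition.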"}
{"smiles": "COc1cccc2c1C(=O)c1c(O)c3c(c(O)c1C2=O)C[C@@](O)(C(C)=O)C[C@@H]3OC1CC(O)C(O)C(C)O1", "note": "(stereo partly specified)", "values": [{"measurement": "TGI", "setting": "MDA-MB-435", "result": 27.7, "unit": "µM"}, {"measurement": "TGI", "setting": "KM12 colon", "result": "9.61 µM and 12.2 µM"}, {"measurement": "TGI", "setting": "LOX IMVI melanoma", "result": "3.77 µM and 2.6 µM"}, {"measurement": "TGI", "setting": "NCI-H460 lung", "result": "2.73 µM and 5.19 µM"}, {"measurement": "TGI", "setting": "HOP-92 NSCLC", "result": "9.67 µM and 18.8 µM"}, {"measurement": "TGI", "setting": "OVCAR-3 ovarian", "result": 23.6, "unit": "µM"}, {"measurement": "TGI", "setting": "CCRF-CEM leukemia", "result": "1.98 µM and 2.06 µM"}, {"measurement": "GI50", "setting": "ACHN renal", "result": 0.397, "unit": "µM"}, {"measurement": "TGI", "setting": "ACHN renal", "result": "2.41 µM and 2.85 µM"}, {"measurement": "TGI", "setting": "RPMI-8226 leukemia", "result": "5.5 µM and 8.53 µM"}, {"measurement": "TGI", "setting": "TK-10 renal", "result": 81.3, "unit": "µM"}, {"measurement": "TGI", "setting": "HCT-116 colon", "result": "3.54 µM and 3.82 µM"}, {"measurement": "TGI", "setting": "HOP-18 NSCLC", "result": "7.13 µM and 7.74 µM"}, {"measurement": "TGI", "setting": "SK-OV-3 ovarian", "result": "8.99 µM and 42.6 µM"}, {"measurement": "TGI", "setting": "SF-268 CNS", "result": "9.38 µM and 12.8 µM"}, {"measurement": "TGI", "setting": "A549 NSCLC", "result": "6.31 µM and 10.4 µM"}, {"measurement": "GI50", "setting": "SR leukemia", "result": "0.089 µM and 0.0887 µM"}, {"measurement": "TGI", "setting": "SR leukemia", "result": "0.451 µM and 0.497 µM"}, {"measurement": "TGI", "setting": "M19-MEL melanoma", "result": "9.24 µM and 6.19 µM"}, {"measurement": "TGI", "setting": "OVCAR-4 ovarian", "result": "9.94 µM and 16.9 µM"}, {"measurement": "TGI", "setting": "RXF 393 renal", "result": 9.33, "unit": "µM"}, {"measurement": "TGI", "setting": "HS 578T breast", "result": 6.93, "unit": "µM"}, {"measurement": "TGI", "setting": "786-0 renal", "result": "8.12 µM and 19.4 µM"}, {"measurement": "TGI", "setting": "SF-539 CNS", "result": "9.15 µM and 10.2 µM"}, {"measurement": "GI50", "setting": "MCF7 breast", "result": 0.153, "unit": "µM"}, {"measurement": "TGI", "setting": "MCF7 breast", "result": "> 94.4", "unit": "µM"}, {"measurement": "TGI", "setting": "SN12C renal", "result": "8.75 µM and 17.5 µM"}, {"measurement": "TGI", "setting": "SNB-19 CNS", "result": "8.41 µM and 20.5 µM"}, {"measurement": "TGI", "setting": "MALME-3M melanoma", "result": "6.66 µM and 5.96 µM"}, {"measurement": "TGI", "setting": "SW-620 colon", "result": 35.5, "unit": "µM"}, {"measurement": "TGI", "setting": "A498 renal", "result": 9.01, "unit": "µM"}, {"measurement": "TGI", "setting": "T-47D breast", "result": 36.9, "unit": "µM"}, {"measurement": "TGI", "setting": "HCT-15 colon", "result": "9.84 µM and 14.6 µM"}, {"measurement": "GI50", "setting": "LXFL 529 NSCLC", "result": 1.49, "unit": "µM"}, {"measurement": "TGI", "setting": "LXFL 529 NSCLC", "result": 15.3, "unit": "µM"}, {"measurement": "TGI", "setting": "SNB-78 CNS", "result": 59.1, "unit": "µM"}, {"measurement": "TGI", "setting": "NCI-H226 lung", "result": "4.77 µM and 1.58 µM"}, {"measurement": "TGI", "setting": "SK-MEL-2 melanoma", "result": "9.44 µM and 15.2 µM"}, {"measurement": "TGI", "setting": "MOLT-4 leukemia", "result": "0.523 µM and 0.137 µM"}, {"measurement": "TGI", "setting": "HL-60(TB) leukemia", "result": "1.94 µM and 1.2 µM"}, {"measurement": "TGI", "setting": "MDA-N", "result": 21.4, "unit": "µM"}, {"measurement": "TGI", "setting": "NCI-H522 lung", "result": "9.44 µM and 7.38 µM"}, {"measurement": "TGI", "setting": "UO-31 renal", "result": 10, "unit": "µM"}, {"measurement": "TGI", "setting": "BT-549 breast", "result": 20.1, "unit": "µM"}, {"measurement": "GI50", "setting": "SN12K1 renal", "result": 0.333, "unit": "µM"}, {"measurement": "TGI", "setting": "SN12K1 renal", "result": 4.96, "unit": "µM"}, {"measurement": "GI50", "setting": "M14 melanoma", "result": 2.7, "unit": "µM"}, {"measurement": "TGI", "setting": "M14 melanoma", "result": 18, "unit": "µM"}, {"measurement": "TGI", "setting": "SK-MEL-28 melanoma", "result": 25, "unit": "µM"}, {"measurement": "TGI", "setting": "DLD-1 colon", "result": 15.9, "unit": "µM"}, {"measurement": "TGI", "setting": "HOP-62 NSCLC", "result": "7.09 µM and 1.78 µM"}, {"measurement": "TGI", "setting": "NCI-H23 lung", "result": "6.17 µM and 4.32 µM"}, {"measurement": "TGI", "setting": "EKVX NSCLC", "result": 27.2, "unit": "µM"}, {"measurement": "TGI", "setting": "PC-3 prostate", "result": 31.9, "unit": "µM"}, {"measurement": "GI50", "setting": "P388 leukemia", "result": 0.013, "unit": "µM"}, {"measurement": "TGI", "setting": "P388 leukemia", "result": 0.372, "unit": "µM"}, {"measurement": "GI50", "setting": "NCI/ADR-RES ovarian", "result": 0.000214, "unit": "µM"}, {"measurement": "TGI", "setting": "CAKI-1 renal", "result": "5.57 µM and 4.94 µM"}, {"measurement": "TGI", "setting": "HCC-2998 colon", "result": 12.8, "unit": "µM"}, {"measurement": "TGI", "setting": "COLO 205 colon", "result": 27, "unit": "µM"}, {"measurement": "TGI", "setting": "DU-145 prostate", "result": 8.55, "unit": "µM"}, {"measurement": "TGI", "setting": "SK-MEL-5 melanoma", "result": "5.06 µM and 2.78 µM"}, {"measurement": "TGI", "setting": "DMS 273 small cell lung", "result": "7.84 µM and 3.46 µM"}, {"measurement": "TGI", "setting": "P388/ADR leukemia", "result": 1.64, "unit": "µM"}, {"measurement": "TGI", "setting": "MDA-MB-231 breast", "result": "> 100", "unit": "µM"}, {"measurement": "TGI", "setting": "K-562 leukemia", "result": 14.5, "unit": "µM"}]}
